According to PMC8623273, “Novel N7-Arylmethyl Substituted Dinucleotide mRNA 5′ cap Analogs: Synthesis and Evaluation as Modulators of Translation” (Pharmaceutics, 2021):

Tests used:
[1] = biological target: T1, hDcpS (Homo sapiens, UniProt Q96C86); format: in vitro ADME; settings: 100 μM compound, 20 nM hDcpS; for hDcpS Assay: fraction of the cap remaining after 1 h incubation with DcpS: 37 °C
T1 sequence (Q96C86 1-337): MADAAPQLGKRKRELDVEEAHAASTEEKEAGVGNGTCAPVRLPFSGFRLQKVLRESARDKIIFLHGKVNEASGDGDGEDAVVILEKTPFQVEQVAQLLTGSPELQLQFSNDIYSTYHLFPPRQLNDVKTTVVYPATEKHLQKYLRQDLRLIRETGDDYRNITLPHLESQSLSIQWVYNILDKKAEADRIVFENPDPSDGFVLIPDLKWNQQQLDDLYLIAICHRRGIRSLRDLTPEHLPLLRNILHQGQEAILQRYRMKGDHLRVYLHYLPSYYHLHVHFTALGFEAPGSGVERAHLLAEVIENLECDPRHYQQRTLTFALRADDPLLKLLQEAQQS
Protocol: Susceptibility to decapping scavenger (DcpS) is one of the factors that could potentially influence the cellular stability of mono- and dinucleotide cap analogs designed as translational inhibitors. Therefore, we studied the susceptibility of arylmethyl-modified dinucleotides to DcpS. The compounds (at 100 μM concentration each) were incubated with 20 nM of hDcpS, and the hydrolysis progress at different time points was analyzed via RP HPLC and compared to m^7GpppG (Figure 4 and Figure S3).
The enzymatic activity of DcpS was assayed at 37 °C in 50 mM Tris∙HCl, pH 7.6 containing 200 mM KCl, 0.5 mM EDTA. DcpS cleavage assays were carried out with 100 μM of the tested compound and 20 nM (monomer) of the hDcpS. Enzymatic reaction progress was examined after 30, 60 and 180 min. As a control, a sample was examined before adding enzyme. Aliquots of 15 μL were terminated by heat inactivation of the enzyme for 3 min at 98 °C. The samples were analyzed via RP HPLC equipped with a Supelcosil LC-18-T column (4.6 × 250 mm, 5 μm, flow rate 1.3 mL/min).

[2] = biological target: eukaryotic translation initiation factor 4E (eIF4E) (Mus musculus, UniProt P63073); assay: pyrene-probe fluorescent competitive-binding assay (PyFLINT-B) for cap analog-eIF4E; settings: for EC50: Table S2; for effect of the N7 substituent on eIF4E binding (in words): compared to m^7GpppG / 1a or unmodified counterpart; for Kd: pyrene-based high-throughput competition assay, 30 °C, KD calculated from EC50, read-out: KD Cap-eIF4E ± SD
Sequence of eukaryotic translation initiation factor 4E (eIF4E) (P63073 whole entry): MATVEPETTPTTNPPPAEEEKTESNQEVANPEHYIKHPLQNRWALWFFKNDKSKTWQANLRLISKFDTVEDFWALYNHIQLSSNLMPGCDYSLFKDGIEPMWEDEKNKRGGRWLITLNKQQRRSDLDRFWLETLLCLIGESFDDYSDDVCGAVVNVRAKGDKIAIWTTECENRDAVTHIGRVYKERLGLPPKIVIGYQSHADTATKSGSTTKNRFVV
Source text: High affinity for eIF4E is a desirable feature of cap analogs designed for modulating translation, either as small molecules or as a part of mRNA. Thus, we studied how different substituents at the N7-position affected eIF4E-cap interaction. To this end, we first determined the affinity of m^7GpppG and Bn^7GpppG (1a) using time-synchronized fluorescence quenching titration, a very precise and well-established, but low-throughput method. Next, to evaluate the whole set of the synthesized compounds (1a–1r), we used a high-throughput competitive-binding assay based on a pyrene-labeled fluorescent probe. From this assay we determined relative affinities of the compounds represented by half-effective concentrations (EC50) (Figure 3A–C), which were then used to calculate dissociation constant (KD) values for cap analog–eIF4E complexes using previously reported equations (Table 2, Figure 3D).
To determine the dissociation constants of the library of N7-benzylated dinucleotide 5′ cap analogs for translation initiation factor 4E, a fluorescent competitive-binding assay (PyFLINT-B) was applied as previously described. The experiments were performed on a Synergy™ H1 plate reader in 96-well, black, non-binding assay plates. Each well contained an appropriate buffer (50 mM Hepes/KOH pH 7.2, 100 mM KCl and 0.5 mM EDTA), pyrene probe m^7Gp5C4Py (10 nM), substrate (in half-logarithmic dilutions from 850 μM to 0.03 μM for compound 1m and from 100 μM to 0.003 μM for m^7GpppG and the rest of the compounds) and protein eIF4E (75 nM). The m^7Gp5C4Py was synthesized as describer earlier. The pyrene probe was dissolved in water and concentration was determined spectrometrically at 345 nm using the extinction coefficient (21,000 M^−1 cm^−1). The eIF4E protein was centrifuged after defrosting (5 min, 4 °C, 10k rcf) and its concentration was determined spectrometrically at 280 nm using the extinction coefficient (52,940 M^−1 cm^−1). The reaction mixtures were preincubated (15 min, 300 rpm, 30 °C). All measurements were performed at 30 °C and the fluorescence detection at 345 nm excitation and 378 nm emission was recorded.
To determine EC50 values, GraphPad Prism 9.1.2 software was used. To fit the curves to the obtained data we used the following formula:(1) Y=Bottom+ Top−Bottom/1+ X/EC50 where: X, cap analog (ligand) concentration; EC50, concentration of the cap analog resulting in half-maximal response from the fluorescent probe–protein complex; Bottom, minimal signal from the negative control, which contains only the free probe; Top, maximal signal from the positive control, the mixture of the protein and the fluorescent probe.
The dissociation constants KD were then calculated using the equation described by Nikolovska-Coleska et al.:(2) KD=EC50−Pt+PL50KD_probe/L50+1/L50/KD_probe+P0/KD_probe+1 where: EC50, concentration of the cap analog resulting in half-maximal response from the fluorescent probe–protein complex; [Pt], total protein concentration; [PL]50, concentration of the probe–protein complex at 50% inhibition; KD_probe, dissociation constant of the complex between the fluorescent probe and the protein; [L]50, probe concentration at 50% inhibition; [P]0, free protein concentration at 0% inhibition.

[3] = biological target: eIF4E (Mus musculus, UniProt P63073); assay: fluorescence anisotropy (FA) competition assay with eIF4E; format: binding; settings: Table S2; for EC50: 25 °C, probe m^7GTP-triazol-FAM 10 nM, eIF4E 100 nM; for Kd: calculated from EC50
Sequence of eIF4E (P63073 whole entry): as above
Source text: The KD values determined from the high-throughput assay were in qualitative agreement with data from time-synchronized fluorescence quenching titration, justifying the use of the former for evaluation of the whole set of caps. […] To additionally verify the binding affinity data (especially for 1q and 1r, as mentioned above), we determined the binding affinities for all analogs using another independent assay, based on fluorescence anisotropy. The KD data determined by this method correlated very well with the results reported above (Table S2, Figure S2).
Fractions of the compounds were independently tested using a different method based on fluorescence anisotropy (FA). These experiments were performed on a Synergy™ H1 plate reader in 96-well, black, non-binding assay plates. Each well contained appropriate buffer (50 mM HEPES/KOH pH 7.2, 100 mM KCl, 0.5 mM EDTA i 1 mM DTT), the fluorescent probe m^7GTP-triazol-FAM (10 nM), substrate (in a 2.08-fold dilution, starting from 60 μM) and protein eIF4E (100 nM). The m^7GTP-triazol-FAM was synthesized as describer earlier. All measurements were performed at 25 °C. Determined EC50 values were means ± SD of three independent experiments. The dissociation constants KD were then calculated using the equation described by Nikolovska-Coleska as described earlier.

[4] = tested on: cap-dependent translation in rabbit reticulocyte lysate (RRL); assay: inhibition of cap-dependent translation in rabbit reticulocyte lysate (RRL); format: biochemical; settings: RRL, cap analog and mRNA added at the same time (no pre-incubation), 60 min, 30 °C; read-out: Translation Inhibition IC50
Protocol: After determining the affinity for eIF4E and susceptibility to DcpS, we evaluated the analogs as inhibitors of protein translation in rabbit reticulocyte lysates (RRL). To enable better assessment of how these two factors influenced inhibitory properties, we performed two sets of experiments. In the first set, cap analogs were added to RRL along with luciferase-encoding reporter mRNA followed by a protein activity (luminescence) readout after 1 h, whereas in the second set cap analogs were additionally preincubated in RRL for 1 h prior to addition of mRNA. Based on previously reported findings, we expected that in the second experimental setup, cap analogs susceptible to DcpS would lose their inhibitory potency, whereas compounds resistant to DcpS would remain similarly active.
The ability of the N7-benzyl cap analogues to inhibit cap-dependent translation was assayed in a rabbit reticulocyte lysate (RRL) system. Two sets of experiments were performed. In both variants, in vitro translation reactions (10 μL total volume) contained a tested cap analog (inhibitor) and an in vitro transcribed, ARCA-capped mRNA encoding Gaussia luciferase at 1 μg/mL final concentration. In experimental variant A, cap analogues at concentrations in the range of 0 to 64 μM and mRNA were added to the reaction mixture at the same time. Reactions were incubated at 30 °C for 60 min and then stopped by freezing in liquid nitrogen. In experimental variant B, the cap analogues were added at concentrations in the range of 0 to 160 μM. Reactions were pre-incubated at 30 °C for 60 min prior to addition of mRNA; after addition of mRNA incubation was continuous at 30 °C for 60 min and then stopped by freezing in liquid nitrogen. To detect luminescence from Gaussia luciferase, 50 μL of 10 ng/mL h-coelenterazine (NanoLight, Norman, OK, USA) in PBS was added to 10 μL of RRL and the luminescence was measured with a Synergy H1 (BioTek, Winooski, VT, USA) microplate reader.

SMILES	susceptibility to hDcpS (in words) [1]	hDcpS Assay: fraction of the cap remaining after 1 h incubation with DcpS [1]	EC50 [2]	effect of the N7 substituent on eIF4E binding (in words) [2]	Kd [2]	EC50 [3]	Kd [3]	IC50 [4]	conversion after 1 h of incubation with hDcpS [1]
Nc1nc(O)c2c(n1)n([C@@H]1O[C@H](COP(=O)(O)OP(=O)([O-])OP(=O)(O)OC[C@H]3O[C@@H](n4cnc5c(=O)[nH]c(N)nc54)[C@H](O)[C@@H]3O)[C@@H](O)[C@H]1O)c[n+]2Cc1cccc2ccccc12 [1o, α-Naphm^7GpppG]	lower susceptibility to hDcpS than m^7GpppG	0.97	35000 nM	disrupted the binding to a similar extent as 2-methylbenzyl	3040 ± 490 nM	2100 ± 100 nM	739 ± 49 nM		
Nc1nc(O)c2c(n1)n([C@@H]1O[C@H](COP(=O)(O)OP(=O)([O-])OP(=O)(O)OC[C@H]3O[C@@H](n4cnc5c(=O)[nH]c(N)nc54)[C@H](O)[C@@H]3O)[C@@H](O)[C@H]1O)c[n+]2Cc1ccc2ccccc2c1 [1p, β-Naphm^7GpppG]	lower susceptibility to hDcpS than m^7GpppG	0.84	12000 ± 600 nM	disrupted the binding to a similar extent as 2-methylbenzyl	1060 ± 190 nM			15900 ± 3400 nM	
Nc1nc(O)c2c(n1)n([C@@H]1O[C@H](COP(=O)(O)OP(=O)([O-])OP(=O)(O)OC[C@H]3O[C@@H](n4cnc5c(=O)[nH]c(N)nc54)[C@H](O)[C@@H]3O)[C@@H](O)[C@H]1O)c[n+]2Cc1ccc(F)cc1F [1j, 2,4-di-F-Bn^7GpppG]		0.70	6900 nM		598 ± 87 nM	870 ± 50 nM	298 ± 18 nM	8400 ± 1500 nM	~70%
Nc1nc(O)c2c(n1)n([C@@H]1O[C@H](COP(=O)(O)OP(=O)([O-])OP(=O)(O)OC[C@H]3O[C@@H](n4cnc5c(=O)[nH]c(N)nc54)[C@H](O)[C@@H]3O)[C@@H](O)[C@H]1O)c[n+]2Cc1ccc(C(=O)O)cc1 [1m, 4-COOH-Bn^7GpppG]	Lower susceptibility to hydrolysis	0.93		completely disrupted the binding	> 50000 nM			> 500000 nM	
Cc1ccc(C[n+]2cn([C@@H]3O[C@H](COP(=O)(O)OP(=O)([O-])OP(=O)(O)OC[C@H]4O[C@@H](n5cnc6c(=O)[nH]c(N)nc65)[C@H](O)[C@@H]4O)[C@@H](O)[C@H]3O)c3nc(N)nc(O)c32)cc1 [1d, 4-MeBn^7GpppG]	almost as good a substrate as Bn^7GpppG	0.53	5600 nM		482 ± 81 nM	860 ± 30 nM	295 ± 13 nM	16900 ± 3500 nM	
Cc1cc(C)cc(C[n+]2cn([C@@H]3O[C@H](COP(=O)(O)OP(=O)([O-])OP(=O)(O)OC[C@H]4O[C@@H](n5cnc6c(=O)[nH]c(N)nc65)[C@H](O)[C@@H]4O)[C@@H](O)[C@H]3O)c3nc(N)nc(O)c32)c1 [1f, 3,5-di-MeBn^7GpppG]	Lower susceptibility to hydrolysis	0.95	7500 nM		646 ± 114 nM	1100 ± 100 nM	384 ± 41 nM	13200 ± 2000 nM	
Cc1ccccc1C[n+]1cn([C@@H]2O[C@H](COP(=O)(O)OP(=O)([O-])OP(=O)(O)OC[C@H]3O[C@@H](n4cnc5c(=O)[nH]c(N)nc54)[C@H](O)[C@@H]3O)[C@@H](O)[C@H]2O)c2nc(N)nc(O)c21 [1b, 2-MeBn^7GpppG]	very slowly hydrolyzed	0.88		decreased the binding affinity by eight-fold	1910 ± 360 nM	3100 ± 100 nM	1120 nM	154000 ± 88000 nM	
